The record followed here is US11427548B2 (Arvinas Operations, Inc., priority 2015, dated 2022).

Each structure is given as a SMILES string. Like-named read-outs stand apart in the source and are kept apart here.

For data set [1], the target named is T1, Androgen Receptor (Homo sapiens, UniProt P10275+P40337, T878A).
T1 construct: Compounds have been evaluated in this assay in LNCaP and/or VCaP cells utilizing similar protocols; endogenous in cells; host or cells: LNCaP cells
Briefly: Androgen Receptor ELISA assay (PathScan AR ELISA) in LNCaP cells: AR degradation, Dmax and DC50. In kind it is cell-based. The following applies: for DC50: concentration that caused 50% Androgen Receptor degradation; for Dmax: highest percentage of Androgen Receptor degradation observed.

Data set [2] deals with T2, Androgen Receptor (Homo sapiens, UniProt P10275).
T2 construct: endogenous in cells; host or cells: VCaP cells
T2 sequence (P10275 1-920): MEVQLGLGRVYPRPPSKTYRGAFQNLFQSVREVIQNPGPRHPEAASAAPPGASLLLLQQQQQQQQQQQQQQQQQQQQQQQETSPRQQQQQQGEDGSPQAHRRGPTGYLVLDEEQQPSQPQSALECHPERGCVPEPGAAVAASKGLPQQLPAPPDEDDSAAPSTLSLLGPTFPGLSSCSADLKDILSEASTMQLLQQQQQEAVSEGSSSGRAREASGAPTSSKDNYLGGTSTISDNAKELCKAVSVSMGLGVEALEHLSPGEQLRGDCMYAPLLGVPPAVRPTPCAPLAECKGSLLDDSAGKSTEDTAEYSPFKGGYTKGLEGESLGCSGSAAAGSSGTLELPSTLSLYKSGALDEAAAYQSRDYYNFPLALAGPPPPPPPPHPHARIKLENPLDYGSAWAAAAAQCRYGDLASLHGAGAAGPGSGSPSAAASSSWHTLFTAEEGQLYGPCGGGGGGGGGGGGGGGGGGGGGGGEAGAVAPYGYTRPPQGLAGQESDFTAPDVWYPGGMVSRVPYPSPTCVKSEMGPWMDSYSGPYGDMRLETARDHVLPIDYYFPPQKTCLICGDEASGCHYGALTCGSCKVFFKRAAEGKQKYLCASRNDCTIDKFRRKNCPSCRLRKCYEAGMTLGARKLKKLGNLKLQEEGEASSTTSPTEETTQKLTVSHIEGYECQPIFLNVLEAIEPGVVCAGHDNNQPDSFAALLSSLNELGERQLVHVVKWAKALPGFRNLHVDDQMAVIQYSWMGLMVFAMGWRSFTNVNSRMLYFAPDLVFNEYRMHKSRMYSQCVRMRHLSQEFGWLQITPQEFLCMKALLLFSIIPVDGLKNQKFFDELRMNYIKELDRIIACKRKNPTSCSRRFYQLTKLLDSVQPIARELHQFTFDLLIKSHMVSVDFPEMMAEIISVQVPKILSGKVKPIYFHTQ
Briefly: Androgen Receptor ELISA assay (PathScan AR ELISA) in VCaP cells: AR degradation, Dmax and DC50. It counts as cell-based. The method in brief:
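After 24 h exposure of VCaP cells (charcoal-stripped serum, 0.1 nM R1881 agonist, 0.1% DMSO) to seven half-log compound concentrations, residual AR in lysates was measured by PathScan ELISA (TMB absorbance, 450 nm). Cells were plated at 30,000/well and grown at least 3 days beforehand.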

The test system of another data set is VCaP cells. The data set is described as follows: VCaP cell proliferation assay (Cell Titer Glo), GI50. In kind it is cell-based. Particulars: Homo sapiens; VCaP cells, 0.1 nM R1881; Table 37; read-out: GI50, Inhibition of VCaP Proliferation. The method, then:
2. VCaP Cell Proliferation Assay.
VCaP cells are plated 7,500/well 200 μL/well in VCaP assay medium [Phenol red free RPMI (Gibco Cat #11835-030); 5% Charcoal Stripped (Dextran treated) FBS (Omega Scientific, Cat #FB-04); Pen/Strep Life Technologies (Gibco Cat #: 10378-016); 0.1 nM R1881 (Sigma, Cat #R0908) is added upon the start of the assay, not during initial plating of the cells).
The assay was performed as follows: the cells are grown for a minimum of 3 days to deplete androgens; dosing of PROTACs and R1881 is performed as for AR ELISA; the baseline reading of Cell Titer Glo can be performed on day of dosing.
VCaP cells with 0.1 nM R1881 will double once in 4 days. Gently draw off 110 μL of media so as not to disturb the adherent cells; add 110 μL of CTG; incubate with slow shaking for 20 minutes; and read luminescence on a plate reader.
(In ATP-based viability assays light output follows the ATP content of the culture.)

The nature of data set [3]: PROTAC subcutaneous pharmacokinetics in CD-1 mice. In kind it is in vivo. The following applies: male, plasma, CD-1 Mouse, 10 mg/kg SC dose; for AUC(0-t): read-out: Plasma Exposure AUC0-24; for Cmax: read-out: Plasma Exposure Cmax. As for the experimental part:
9. PROTAC Prodrug Oral Pharmacokinetics and PROTAC Subcutaneous Phamacokinetics.
Representative Pharmacokinetic Procedure
Male CD-1 mice (6-8 weeks old, weighing 20-30 g, 3 per study) with free access to food and water were administered with the test article at 10 mg/kg either by oral gavage or sub-cutaneous injection in the formulation specified in tables 20 and 21, at 10 mL/kg.
Approximately 0.04 mL blood samples were collected from the dorsal metatarsal vein serially at 0.25, 0.5, 1, 2, 4, 8 and 24 h timepoints; heparin was used as the anticoagulant. The samples were centrifuged at 4000 g for 5 min at 4° C. then stored at −75° C. prior to analysis.
The plasma samples were analysed via an LC/MS/MS method quantitating for unchanged, administered test article, and/or a derivative species as appropriate. WinNonlin (Phoenix™) was used for the pharmacokinetic calculations and modeling, to generate parameters such as Cmax and AUC.

[4] abbreviates: VCaP cells; concentration that caused 50% Androgen Receptor degradation; read-out: VCaP DC50.
Setting [5] is: VCaP, VCaP cells; highest percentage of Androgen Receptor degradation; read-out: VCaP Dmax (%).
[6] abbreviates: read-out: VCaP DC50; VCaP cells; concentration that caused 50% Androgen Receptor degradation.

T1 sequence (P10275 whole entry T878A): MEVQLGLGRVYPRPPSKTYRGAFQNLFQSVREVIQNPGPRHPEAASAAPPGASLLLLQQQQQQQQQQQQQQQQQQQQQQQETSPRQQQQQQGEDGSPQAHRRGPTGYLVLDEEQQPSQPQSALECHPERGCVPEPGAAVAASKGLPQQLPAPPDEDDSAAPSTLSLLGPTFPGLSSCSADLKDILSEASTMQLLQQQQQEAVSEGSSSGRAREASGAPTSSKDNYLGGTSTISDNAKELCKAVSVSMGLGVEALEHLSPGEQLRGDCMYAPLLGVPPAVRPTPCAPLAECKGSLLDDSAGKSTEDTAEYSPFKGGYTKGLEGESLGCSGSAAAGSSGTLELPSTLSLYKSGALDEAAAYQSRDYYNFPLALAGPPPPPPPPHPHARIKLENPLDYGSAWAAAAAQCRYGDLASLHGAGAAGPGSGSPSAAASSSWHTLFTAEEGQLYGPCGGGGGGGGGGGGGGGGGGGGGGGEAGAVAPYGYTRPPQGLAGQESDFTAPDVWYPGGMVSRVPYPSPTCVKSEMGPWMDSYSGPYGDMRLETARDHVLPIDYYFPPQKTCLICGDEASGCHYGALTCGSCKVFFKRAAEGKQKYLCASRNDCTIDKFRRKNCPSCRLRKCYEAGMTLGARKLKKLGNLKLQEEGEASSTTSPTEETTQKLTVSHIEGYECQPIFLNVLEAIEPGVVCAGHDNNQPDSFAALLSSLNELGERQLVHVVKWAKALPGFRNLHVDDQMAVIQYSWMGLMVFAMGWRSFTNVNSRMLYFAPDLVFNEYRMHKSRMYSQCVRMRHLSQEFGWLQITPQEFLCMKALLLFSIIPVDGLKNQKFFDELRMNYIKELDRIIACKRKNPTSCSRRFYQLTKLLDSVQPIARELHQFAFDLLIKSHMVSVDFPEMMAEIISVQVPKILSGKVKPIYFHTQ
T1 sequence (P40337 whole entry): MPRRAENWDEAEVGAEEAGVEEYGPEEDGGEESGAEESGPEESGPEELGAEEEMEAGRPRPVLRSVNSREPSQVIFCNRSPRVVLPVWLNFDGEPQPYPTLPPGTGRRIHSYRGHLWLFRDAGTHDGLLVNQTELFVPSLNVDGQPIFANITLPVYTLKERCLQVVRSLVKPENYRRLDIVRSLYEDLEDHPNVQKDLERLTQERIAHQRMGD
T1 sequence (Q15369 whole entry partner): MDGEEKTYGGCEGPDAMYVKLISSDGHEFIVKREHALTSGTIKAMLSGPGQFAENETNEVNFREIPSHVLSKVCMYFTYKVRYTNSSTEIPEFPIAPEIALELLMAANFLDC
T1 sequence (Q15370 whole entry partner): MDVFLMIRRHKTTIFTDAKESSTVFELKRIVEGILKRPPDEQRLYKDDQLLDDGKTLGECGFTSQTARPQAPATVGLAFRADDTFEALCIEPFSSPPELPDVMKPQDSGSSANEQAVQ

`Cc1ncsc1-c1ccc(CNC(=O)[C@@H]2C[C@@H](O)CN2C(=O)[C@@H](NC(=O)COCCCCOc2ccc(-c3ccc(N4C(=S)N(c5ccc(C#N)c(C(F)(F)F)c5)C(=O)C4(C)C)cc3)cc2)C(C)(C)C)cc1` [Example 75, (2S,4R)-1-[(2S)-2-(2-{4-[4-(4-{3-[4-cyano-3-(trifluoromethyl)phenyl]-5,5-dimethyl-4-oxo-2-sulfanylideneimidazolidin-1-yl}phenyl)phenoxy]butoxy}acetamido)-3,3-dimethylbutanoyl]-4-hydroxy-N-{[4-(4-methyl-1,3-thiazol-5-yl)phenyl]methyl}pyrrolidine-2-carboxamide]: the 50% degradation concentration (DC50) (in general, the concentration at which degradation of the target reaches its halfway point) was less than 50 nM at Androgen Receptor [1] and less than 50 nM on Androgen Receptor [2] (read-out: VCaP DC50; concentration that caused 50% Androgen Receptor degradation, VCaP cells). Further, the Dmax (in general, the greatest extent of degradation seen) was more than 71% on Androgen Receptor [1] and more than 71% at Androgen Receptor [2] (VCaP, read-out: VCaP Dmax (%)). Moreover, the GI50 with VCaP cells was in the range of 51 to 250 nM.

As for `Cc1ncsc1-c1ccc(CNC(=O)[C@@H]2C[C@@H](O)CN2C(=O)[C@@H](NC(=O)COCCCOCCN2CCC(c3ccc(N4C(=S)N(c5ccc(C#N)c(C(F)(F)F)c5)C(=O)C4(C)C)cc3)CC2)C(C)(C)C)cc1` [Example 80, (2S,4R)-1-((S)-2-(2-(3-(2-(4-(4-(3-(4-cyano-3-(trifluoromethyl)phenyl)-5,5-dimethyl-4-oxo-2-thioxoimidazolidin-1-yl)phenyl)piperidin-1-yl)ethoxy)propoxy)acetamido)-3,3-dimethylbutanoyl)-4-hydroxy-N-(4-(4-methylthiazol-5-yl)benzyl)pyrrolidine-2-carboxamide], at Androgen Receptor [1], the 50% degradation concentration (DC50) was more than 501 nM and the Dmax lay in the range of 51 to 70%. Further, in data set [3] (vehicle ELP-1), the AUC(0-t) is 2530 ng·h/mL and the Cmax – broadly, the peak of the concentration-time curve – came out at 180 ng/mL. The Dmax on Androgen Receptor [2] (VCaP, read-out: VCaP Dmax (%)) was 26 to 50%.

For `CC(C)(C)[C@H](NC(=O)COCCCCCOc1ccc(C(=O)N[C@H]2C(C)(C)[C@H](Oc3ccc(C#N)c(Cl)c3)C2(C)C)cc1)C(=O)N1C[C@H](O)C[C@H]1C(=O)NCc1ccc(-c2cncs2)cc1` [Example 150, (2S,4R)-1-[(2S)-3,3-dimethyl-2-(2-{[5-(4-{[trans-3-(3-chloro-4-cyanophenoxy)-2,2,4,4-tetramethylcyclobutyl]carbamoyl}phen-oxy)pentyl]oxy}acetamido)butanoyl]-4-hydroxy-N-{[4-(1,3-thiazol-5-yl)phenyl]methyl}pyrrolidine-2-carboxamide], in data set [3] (vehicle ESD-1), the AUC(0-t) amounted to 40200 ng·h/mL and the Cmax is 2750 ng/mL. The Dmax on Androgen Receptor [2] (VCaP, highest percentage of Androgen Receptor degradation observed, VCaP cells (Table 32); read-out: VCaP Dmax (%)) was more than 71%. In addition, the DC50 on Androgen Receptor [2] (concentration that caused 50% Androgen Receptor degradation, VCaP cells (Table 32); read-out: VCaP DC50) was less than 50 nM. For the same molecule, the GI50 with VCaP cells was not above 50 nM.

In the case of `Cc1ncsc1-c1ccc(CNC(=O)[C@@H]2C[C@@H](O)CN2C(=O)[C@@H](NC(=O)COCCCCOc2ccc(-c3ccc(N4C(=S)N(c5cnc(C#N)c(C(F)(F)F)c5)C(=O)C4(C)C)c(F)c3)cc2)C(C)(C)C)cc1` [Example 197, (2S,4R)-1-[(2S)-2-(2-{4-[4-(4-{3-[6-cyano-5-(trifluoromethyl)pyridin-3-yl]-5,5-dimethyl-4-oxo-2-sulfanylideneimidazolidin-1-yl}-3-fluorophenyl)phenoxy]butoxy}acetamido)-3,3-dimethylbutanoyl]-4-hydroxy-N-{[4-(4-methyl-1,3-thiazol-5-yl)phenyl]methyl}pyrrolidine-2-carboxamide], the 50% degradation concentration (DC50) on Androgen Receptor [2] (setting [4]) was less than 50 nM. In addition, the Dmax on Androgen Receptor [2] (setting [5]) was more than 71%. Further, the GI50 in the data set with VCaP cells was 51 to 250 nM.

Regarding `Cc1ncsc1-c1ccc(CNC(=O)[C@@H]2C[C@@H](O)CN2C(=O)[C@@H](NC(=O)COCC2CC3(C2)CC(COc2ccc(N4C(=S)N(c5ccc(C#N)c(C(F)(F)F)c5)C(=O)C4(C)C)cc2)C3)C(C)(C)C)cc1` (stereo partly drawn) [Example 201, (2S,4R)-1-[(2S)-2-[2-({6-[(4-{3-[4-cyano-3-(trifluoromethyl)phenyl]-5,5-dimethyl-4-oxo-2-sulfanylideneimidazolidin-1-yl}phenoxy)methyl]spiro[3.3]heptan-2-yl}methoxy)acetamido]-3,3-dimethylbutanoyl]-4-hydroxy-N-{[4-(4-methyl-1,3-thiazol-5-yl)phenyl]methyl} pyrrolidine-2-carboxamide], on Androgen Receptor [2] (VCaP, read-out: VCaP Dmax (%)), the Dmax is more than 71%. Besides, the DC50 at Androgen Receptor [2] (setting [6]) is less than 50 nM. Moreover, the GI50 in the data set with VCaP cells lay in the range of 51 to 250 nM.

Consider `Cc1ncsc1-c1ccc([C@H](C)NC(=O)[C@@H]2C[C@@H](O)CN2C(=O)[C@@H](NC(=O)COCC2CC3(C2)CC(COc2ccc(N4C(=S)N(c5ccc(C#N)c(C(F)(F)F)c5)C(=O)C4(C)C)cc2)C3)C(C)(C)C)cc1` (stereo partly drawn) [Example 202, (2S,4R)-1-[(2S)-2-[2-({6-[(4-{3-[4-cyano-3-(trifluoromethyl)phenyl]-5,5-dimethyl-4-oxo-2-sulfanylideneimidazolidin-1-yl}phenoxy)methyl]spiro[3.3]heptan-2-yl}methoxy)acetamido]-3,3-dimethylbutanoyl]-4-hydroxy-N-[(1S)-1-[4-(4-methyl-1,3-thiazol-5-yl)phenyl]ethyl] pyrrolidine-2-carboxamide], for which, at Androgen Receptor [2] (VCaP, read-out: VCaP Dmax (%)), the Dmax was more than 71%. For the same molecule, the half-maximal degradation concentration (DC50) on Androgen Receptor [2] (setting [6]) was less than 50 nM. Moreover, the GI50 in the data set with VCaP cells was 51 to 250 nM.

Consider `Cc1ncsc1-c1ccc(CNC(=O)[C@@H]2C[C@@H](O)CN2C(=O)[C@@H](NC(=O)COCCNc2ccc(-c3ccc(C(=O)NC4C(C)(C)C(Oc5ccc(C#N)c(Cl)c5)C4(C)C)cc3)cc2)C(C)(C)C)cc1` (stereo partly drawn) [Example 204, (2S,4R)-1-[(2S)-2-[2-(2-{[4-(4-{[3-(3-chloro-4-cyanophenoxy)-2,2,4,4-tetramethylcyclobutyl]carbamoyl}phenyl)phenyl]amino}ethoxy)acetamido]-3,3-dimethylbutanoyl]-4-hydroxy-N-{[4-(4-methyl-1,3-thiazol-5-yl)phenyl]methyl}pyrrolidine-2-carboxamide], for which the DC50 on Androgen Receptor [2] (setting [4]) was less than 50 nM. At Androgen Receptor [2] (setting [5]), the Dmax is more than 71%. Also, the GI50 in the data set on VCaP cells is not above 50 nM.
